Test system: W303-1B/Δydl120w::Kan^R yeast
Experiment: Growth of mutant yeast in medium supplemented with Fe(II) or Cu(II) ions (OD620)
Type: cell-based, Saccharomyces cerevisiae
Settings: increasing concentrations of the metal salt, SD+ medium, 19 hours at 30° C., FIG. 2A/2B
Protocol: For this experiment, W303-1B/Δydl120w::Kan^R and wild-type yeast precultures were grown in YPD medium for 16-24 hours at 30° C. until OD600 0.4-0.6. The precultures were diluted into SD+ medium (6.7 mg/ml yeast nitrogen base w/o amino acids, 2 mg/ml yeast extracts, 0.04 mg/ml adenine sulfate, 0.0625 mg/ml uracil, 0.04 mg/ml L-leucine, 0.03 mg/ml L-histidine-HCl, 0.03 mg/ml L-tryptophane in water) supplemented with variable concentrations of FeSO4 (dissolved in 0.1 N HCl) or CuSO4 (dissolved in water). Aliquots of 100 microliter of yeast suspension were dispensed into single wells of a 96-well microtiter plate. In the experiments with FeSO4 supplementation (FIG. 2A) culture medium for W303-1B/Δydl120w::Kan^R and wild-type yeast contained 4% w/v glucose and all wells were adjusted to the same final concentration of HCl and to DMSO (1% v/v) to prevent the solvent from interfering with the results.
Following 19 hours of culture at 30° C., the growth of yeast was determined by OD620 measurement using a microplate reader.

SMILES | growth of yeast as determined by OD620 measurement
O=S(=O)([O-])[O-].[Cu+2] [CuSO4] | clearly inhibit the growth of the frataxin deficient yeast
O=S(=O)([O-])[O-].[Fe+2] [FeSO4] | clearly inhibit the growth of the frataxin deficient yeast

Source: patent US20050118576A1, “Novel method and assays for yeast-based drug screening” (priority 2000, published 2005)
